Reference: PubChem BioAssay (NCI)
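Exposure lasted 48 hours, with cells grown in 96-well plates and compounds tested at five concentrations. GI50 marks 50% less growth. TGI: total growth inhibition.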

Legend:
Assay in all cases: NCI tumour cell line growth inhibition, 48 h
NCI-H226 lung = test system: NCI-H226 lung
SF-539 CNS = test system: SF-539 CNS
HT29 colon = test system: HT29 colon
MOLT-4 leukemia = test system: MOLT-4 leukemia
CCRF-CEM leukemia = test system: CCRF-CEM leukemia
HCC-2998 colon = test system: HCC-2998 colon
EKVX NSCLC = test system: EKVX NSCLC
MDA-MB-435 = test system: MDA-MB-435
ACHN renal = test system: ACHN renal
HS 578T breast = test system: HS 578T breast

Structure (SMILES) | TGI (NCI-H226 lung) [µM] | TGI (SF-539 CNS) [µM] | TGI (HT29 colon) [µM] | TGI (MOLT-4 leukemia) [µM] | TGI (CCRF-CEM leukemia) [µM] | TGI (HCC-2998 colon) [µM] | TGI (EKVX NSCLC) [µM] | TGI (MDA-MB-435) [µM] | TGI (ACHN renal) [µM] | TGI (HS 578T breast) [µM] | GI50 (NCI-H226 lung) [µM] | GI50 (MDA-MB-435) [µM] | GI50 (SF-539 CNS) [µM] | GI50 (HT29 colon) [µM] | GI50 (HCC-2998 colon) [µM] | GI50 (EKVX NSCLC) [µM] | GI50 (HS 578T breast) [µM]
CN(C)CC(CC1=C(CC(CN(C)C)N(C)C)CCC1)N(C)C (stereo not given) | > 100 | > 100 | > 100 | > 100 | > 100 | > 100 | > 100 |  |  |  |  |  |  |  |  |  | 
CC1=NN(c2cccc(Cl)c2)C2(SCC(=O)N2c2nc3ccccc3s2)/C1=C\c1cccs1 (stereo not given) | 50.7 | 16.1 | 46.6 | 30.4 |  | 37.1 | 38.4 | > 100 | > 100 | 59 |  |  |  |  |  |  | 
Fc1ccc(C(OCCN2CCC3CCC(C2)N3C/C=C/c2ccco2)c2ccc(F)cc2)cc1 (stereo not given) | 28.8 | 28.4 |  | 20.4 | 0.419 | 18.4 |  | 26.5 | 25.3 | 34.3 |  |  |  |  |  |  | 
O=C(c1cccs1)N(C(=S)OC12CC3CC(CC(C3)C1)C2)c1ccccc1 | > 100 | > 100 | > 100 | > 100 | 52.1 | > 100 | 55.6 | > 100 | > 100 | > 100 |  |  |  |  |  |  | 
O=C(/C=C/c1ccccc1)NNC(=O)c1c(Cl)c(Cl)c(Cl)c(Cl)c1-c1nc2ccccc2[nH]1 | > 100 | > 100 | > 100 | > 100 | 75.8 | 65.9 | > 100 | > 100 | > 100 |  |  |  |  |  |  |  | 
O=c1[nH]nc(NNc2ccccc2)c2nnn(C3CCCCC3)c12 |  |  | > 100 | > 100 | > 100 | > 100 | > 100 | > 100 | > 100 |  |  |  |  |  |  |  | 
COc1cc2c(cc1O)CC[C@@H]1[C@@H]2CC[C@]2(C)[C@@H](OCCN(C)C)CC[C@@H]12 | 6.04 | 0.414 | 0.568 |  |  | 1.5 | 28.5 | 0.208 |  | 4 | 1.17 | 0.0997 | 0.129 | 0.158 | 0.644 | 0.527 | 0.463
Cc1c(N2C(=O)CS(=O)(=O)C2c2cccc(Oc3ccccc3)c2)c(=O)n(-c2ccccc2)n1C (stereo not given) | > 100 | > 100 | > 100 | > 100 | > 100 |  | > 100 | > 100 | > 100 | > 100 |  |  |  |  |  |  | 
Cc1ccccc1C(=O)N/N=C/c1ccc(Sc2nccn2C)c([N+](=O)[O-])c1 | > 100 | > 100 | > 100 | > 100 | > 100 | > 100 | > 100 | 81.1 | > 100 | > 100 |  |  |  |  |  |  | 
COc1nc(C#CC2(O)CCCCC2)nc(OC)n1 |  | 23.3 | 45.4 | > 100 | 48.6 |  | 35.6 | 18.8 | 21.9 | 44.8 |  |  |  |  |  |  | 
Nc1ccccc1S(=O)(=O)c1ccccc1 | > 100 | > 100 | > 100 | > 100 | > 100 | > 100 | > 100 |  | > 100 |  |  |  |  |  |  |  | 
CC(=O)C1=C(C)N(c2ccc(C)cc2)C2(O)C=CC(=O)C3C(=O)N(c4ccccc4)C(=O)C132 (stereo not given) | 34.3 | 65.2 | 44.8 |  | > 100 | 52.3 | 95.5 | > 100 | 40.4 | > 100 |  |  |  |  |  |  | 
CCCNC(=O)CCC(C)C1CCC2C3C(C[C@H](OC(C)=O)[C@]12C)[C@@]1(C)CCC2(C[C@H]1C[C@H]3OC(C)=O)OOC1(CC[C@]3(C)C4C[C@H](OC(C)=O)[C@]5(C)C(C(C)CCC(=O)NCCC)CCC5C4[C@H](OC(C)=O)C[C@@H]3C1)OO2 (stereo not given in full) | > 84.7 | > 100 | > 100 | > 100 | > 100 | > 100 | > 100 | > 100 | > 82.2 | 98.2 |  |  | > 82.2 |  |  |  | 
CC12CC3OC(=O)C1COC14OC5(C2C1=O)C(O)(CCC1C4CC(O)C2(O)CC=CC(=O)C12C)C(=O)OC35C (stereo not given) | > 100 | > 100 | > 100 | > 100 | > 100 | > 100 | > 100 | > 100 | > 100 | > 100 |  |  |  |  |  |  | 
O=C(OCN1C(=O)C2C3C=CC(C2C1=O)C1C2C(=O)N(COC(=O)C4CCCN4)C(=O)C2C31)C1CCCN1 (stereo not given) | > 100 | > 100 | > 100 | > 95.3 | 53.5 | > 100 | > 100 |  | > 83.4 |  |  |  |  |  |  |  | 
CC1CC[C@@]2(OC1)OC1C[C@H]3[C@@H]4CC=C5CC(OC6OC(CO)C(OC7OC(CO)C(O)C(OC8OCC(O)C(O)C8O)C7OC7OC(CO)C(O)C(O)C7O)C(O)C6O)CCC5(C)[C@H]4CCC3(C)C1[C@@H]2C (stereo not given in full) | > 25 | 7.37 | 9.4 | 19.8 | 12.1 | 8.63 | 9.01 | 13.4 | 10.6 | 9.57 |  |  |  |  |  |  | 
COc1cccc2c1Cc1cc(-c3ccccc3)[n+](C)n1-2 | 47.7 | 44.1 | 32 | > 100 | 9.69 | > 100 | 8.22 | 25.5 | 79.9 | > 100 |  |  |  |  |  |  | 
CNC(=O)OCc1c(CO)nc(SC)n1C | > 100 | > 100 | > 100 | > 100 | > 100 | > 100 | > 100 |  |  |  |  |  |  |  |  |  | 
O=C(/C=C/c1ccc(O)c(-c2cc(C(=O)/C=C/c3ccc(O)cc3)c(O)cc2O)c1)c1ccc(O)cc1O |  | 26.3 | 22.3 | > 50 | 37.3 |  | > 50 | > 50 | > 50 | > 50 |  |  |  |  |  |  | 
CNc1ccc2c(c1)[C@@]1(C)c3ccccc3[C@@H](C2)N1C |  |  | 64.8 | 47.6 | 52.7 | 44.5 | 97.3 | 39.1 | > 100 | > 100 |  |  |  |  |  |  | 
